# Assay results reported in patent US5334589A, “Quinolone carboxylic acid--metal ion--acid complexes” (Abbott Laboratories, priority 1992, dated 1994).
# Like-named read-outs stand apart in the source and are kept apart here.
# Key:
# [1] = test system: rat tail vein; experiment: Vein irritation in rats (rat tail vein model); settings: 100 mg/kg/day i.v., normal saline; for Normalized Rank: 5=normal
# Method: Three studies were conducted: In Study I, four rats per group were given test compositions for three consecutive days at a concentration of 4 mg/ml (this and other concentrations expressed in terms of equivalent weight of temafloxacin base); in Study II, three rats per group were given test compositions for five consecutive days at 6 mg/ml; and in Study III, two groups of three rats each were given test compositions for five consecutive days at 4 mg/ml and 8 mg/ml, respectively. All rats were dosed at 100 mg/kg/day, with an infusion rate of 0.3 ml/minute.
# Each rat was observed twice after each infusion: Once after 1-to-2 hours following injection, and again after 24 hours. Discoloration was ranked as follows:
# 4=Single red/pink spot of discoloration
# 3=Multiple red/pink spots of discoloration
# 2=Single purple spot of discoloration
# 1=Multiple purple spots of discoloration
# 0=Approx. one-fourth of distal tail discolored purple
# Aggregate rankings were totaled for each group over the course of each study.
# [2] = Solubility; format: physicochemical
smiles,measurement,setting,value
CC1CN(c2cc3c(cc2F)c(=O)c(C(=O)O)cn3-c2ccc(F)cc2F)CCN1 (stereo not drawn) [Control A],Normalized Rank,"[1]; Study I, 4 mg/ml, three consecutive days, group total / number of animals / number of measurements, 0=worst",2.29
same,Total Rank,"[1]; Study I, 4 rats, 4 mg/ml, three consecutive days, discoloration rank 5=normal to 0=one-fourth of distal tail purple",55
CC1CN(c2cc3c(cc2F)c(=O)c(C(=O)O)cn3-c2ccc(F)cc2F)CCN1 (stereo not drawn) [Control B],Normalized Rank,"[1]; Study II, 6 mg/ml, five consecutive days, 0=worst",3.23
same,Total Rank,"[1]; Study II, 3 rats, 6 mg/ml, five consecutive days, rank 5=normal, 0=worst",97
"CC1CN(c2cc3c(cc2F)c(=O)c(C(=O)O)cn3-c2ccc(F)cc2F)CCN1 (stereo not drawn) [temafloxacin, 1-(2,4-difluorophenyl)-6-fluoro-1,4-dihydro-7-(3-methyl-l-piperazinyl)-4-oxo-3-quinoline carboxylic acid]",solubility,"[2]; about pH 4 to about pH 10, read-out: solubility",< 500 µg/mL
same,solubility,"[2]; temafloxacin base in water, read-out: solubility in water",< 500 µg/mL
